Experimental data reported in US20260262643A1, “HERBICIDAL BENZOXAZINES” (FMC CORPORATION, priority 2022, published 2026).

Tests used:
horseweed = assay: Test A postemergence; format: in vivo, Erigeron canadensis; conditions: postemergence, 10 days
How it was run: (§1)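 Visual injury ratings on a 0–100 scale (100 = complete control) versus untreated controls, taken 10 days after treatment in greenhouse. Preemergence: directed soil spray onto seeded loam/sand. Postemergence: foliar application at one- to two-leaf stage, plants 2–10 cm. Formulation: non-phytotoxic solvent plus surfactant.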

ryegrass, Italian [1] = assay: Test A postemergence; format: in vivo, Lolium multiflorum; conditions: postemergence, 10 days
How it was run: as §1

pigweed, palmer [2] = assay: Test A preemergence; format: in vivo, Amaranthus palmeri; conditions: visual injury after 10 days, 0 to 100 scale, 0 is no effect, 100 is complete control
How it was run: as §1

galium = assay: Test A postemergence; format: in vivo, Galium aparine; conditions: postemergence, 10 days
How it was run: as §1

pigweed, palmer [3] = assay: Test A postemergence; format: in vivo, Amaranthus palmeri; conditions: postemergence, 10 days
How it was run: as §1

barnyardgrass [4] = assay: Test A postemergence; format: in vivo, Echinochloa crusgalli; conditions: postemergence, 10 days
Source text: (§2) Seeds of plant species selected from barnyardgrass (Echinochloa crusgalli), blackgrass (Alopecurus myosuroides), corn (Zea mays), foxtail, giant (giant foxtail, Setaria faberi), goosegrass (Eleusine indica), kochia (Bassia scoparia), oat, wild (wild oat, Avena fatua), pigweed, palmer (palmer amaranth, palmer pigweed, Amaranthus palmeri), Pigweed, Redroot (redroot pigweed, Amaranthus retroflexus), ragweed (common ragweed, Ambrosia artemisiifolia), ryegrass, Italian (italian ryegrass, Lolium multiflorum), soybean (Glycine max), and wheat (Triticum aestivum) were planted into a blend of loam soil and sand and treated preemergence with a directed soil spray using test chemicals formulated in a non-phytotoxic solvent mixture which included a surfactant. At the same time, plants selected from these crops and weed species and also galium (catchweed bedstraw, Galium aparine) and horseweed (Erigeron canadensis) were planted in pots containing the same blend of loam soil and sand and treated with postemergence applications of test chemicals formulated in the same manner. Plants ranged in height from 2 to 10 cm and were in the one- to two-leaf stage for the postemergence treatment. Treated plants and untreated controls were maintained in a greenhouse for 10 days, after which time all treated plants were compared to untreated controls and visually evaluated for injury. Plant response ratings, summarized in Table A, are based on a 0 to 100 scale where 0 is no effect and 100 is complete control. A dash (-) response means no test result.

foxtail, giant [5] = assay: Test A postemergence; format: in vivo, Setaria faberi; conditions: postemergence, 10 days
How it was run: as §1

blackgrass [6] = assay: Test A postemergence; format: in vivo, Alopecurus myosuroides; conditions: postemergence, 10 days
How it was run: as §1

corn [7] = assay: Test A preemergence; format: in vivo, Zea mays; conditions: visual injury after 10 days, 0 to 100 scale, 0 is no effect, 100 is complete control
How it was run: as §1

kochia [8] = assay: Test A preemergence; format: in vivo, Bassia scoparia; conditions: visual injury after 10 days, 0 to 100 scale, 0 is no effect, 100 is complete control
How it was run: as §1

wheat [9] = assay: Test A postemergence; format: in vivo, Triticum aestivum; conditions: postemergence, 10 days
How it was run: as §1

oat, wild [10] = assay: Test A preemergence; format: in vivo, Avena fatua; conditions: visual injury after 10 days, 0 to 100 scale, 0 is no effect, 100 is complete control
How it was run: as §1

corn [11] = assay: Test A postemergence; format: in vivo, Zea mays; conditions: postemergence, 10 days
How it was run: as §1

ragweed [12] = assay: Test A postemergence; format: in vivo, Ambrosia artemisiifolia; conditions: postemergence, 10 days
How it was run: as §1

barnyardgrass [13] = assay: Test A preemergence; format: in vivo, Echinochloa crusgalli; conditions: visual injury after 10 days, 0 to 100 scale, 0 is no effect, 100 is complete control
Source text: as §2

soybean [14] = assay: Test A postemergence; format: in vivo, Glycine max; conditions: postemergence, 10 days
How it was run: as §1

kochia [15] = assay: Test A postemergence; format: in vivo, Bassia scoparia; conditions: postemergence, 10 days
How it was run: as §1

blackgrass [16] = assay: Test A preemergence; format: in vivo, Alopecurus myosuroides; conditions: visual injury after 10 days, 0 to 100 scale, 0 is no effect, 100 is complete control
How it was run: as §1

oat, wild [17] = assay: Test A postemergence; format: in vivo, Avena fatua; conditions: postemergence, 10 days
How it was run: as §1

ryegrass, Italian [18] = assay: Test A preemergence; format: in vivo, Lolium multiflorum; conditions: visual injury after 10 days, 0 to 100 scale, 0 is no effect, 100 is complete control
How it was run: as §1

ragweed [19] = assay: Test A preemergence; format: in vivo, Ambrosia artemisiifolia; conditions: visual injury after 10 days, 0 to 100 scale, 0 is no effect, 100 is complete control
How it was run: as §1

soybean [20] = assay: Test A preemergence; format: in vivo, Glycine max; conditions: visual injury after 10 days, 0 to 100 scale, 0 is no effect, 100 is complete control
How it was run: as §1

wheat [21] = assay: Test A preemergence; format: in vivo, Triticum aestivum; conditions: visual injury after 10 days, 0 to 100 scale, 0 is no effect, 100 is complete control
How it was run: as §1

foxtail, giant [22] = assay: Test A preemergence; format: in vivo, Setaria faberi; conditions: visual injury after 10 days, 0 to 100 scale, 0 is no effect, 100 is complete control
How it was run: as §1

[23] = 125 g ai/ha, 0 to 100 scale, 0 no effect, 100 complete control
[24] = 500 g ai/ha, visual injury, 0 to 100 scale (0 no effect, 100 complete control)

## Cc1cccc2c1O[C@@H](C)CN2C(=O)c1cccc(-n2cnc(COC(C)C)n2)c1 [Compound 135]
horseweed; [23]
  Horseweed plant response rating: 0
horseweed; [24]
  Plant response rating, Horseweed: 0
ryegrass, Italian [1]; [23]
  Ryegrass, Italian plant response rating: 0
ryegrass, Italian [1]; [24]
  Plant response rating, Ryegrass, Italian: 50
pigweed, palmer [2]; 125 g ai/ha
  Plant response rating, Pigweed, Palmer: 10
pigweed, palmer [2]; 500 g ai/ha
  Plant response rating, Pigweed, Palmer: 30
galium; [23]
  Galium plant response rating: 50
galium; [24]
  Plant response rating, Galium: 80
pigweed, palmer [3]; [23]
  Pigweed, Palmer plant response rating: 10
pigweed, palmer [3]; [24]
  Plant response rating, Pigweed, Palmer: 20
Barnyardgrass [4]; [23]
  Barnyardgrass plant response rating: 0
Barnyardgrass [4]; [24]
  Plant response rating, Barnyardgrass: 10
foxtail, giant [5]; [23]
  Foxtail, Giant plant response rating: 10
foxtail, giant [5]; [24]
  Plant response rating, Foxtail, Giant: 90
Blackgrass [6]; [23]
  Blackgrass plant response rating: 0
Blackgrass [6]; [24]
  Plant response rating, Blackgrass: 70
Corn [7]; 125 g ai/ha
  Plant response rating, Corn: 0
Corn [7]; 500 g ai/ha
  Plant response rating, Corn: 10
Kochia [8]; 125 g ai/ha
  Plant response rating, Kochia: 0
Kochia [8]; 500 g ai/ha
  Plant response rating, Kochia: 0
Wheat [9]; [23]
  Wheat plant response rating: 10
Wheat [9]; [24]
  Plant response rating, Wheat: 50
oat, wild [10]; 125 g ai/ha
  Plant response rating, Oat, Wild: 60
oat, wild [10]; 500 g ai/ha
  Plant response rating, Oat, Wild: 90
Corn [11]; [23]
  Corn plant response rating: 10
Corn [11]; [24]
  Plant response rating, Corn: 60
Ragweed [12]; [23]
  Ragweed plant response rating: 0
Ragweed [12]; [24]
  Plant response rating, Ragweed: 30
Barnyardgrass [13]; 125 g ai/ha
  Plant response rating, Barnyardgrass: 30
Barnyardgrass [13]; 500 g ai/ha
  Plant response rating, Barnyardgrass: 70
Soybean [14]; [23]
  Soybean plant response rating: 90
Soybean [14]; [24]
  Plant response rating, Soybean: 100
Kochia [15]; [23]
  Kochia plant response rating: 0
Kochia [15]; [24]
  Plant response rating, Kochia: 50
Blackgrass [16]; 125 g ai/ha
  Plant response rating, Blackgrass: 60
Blackgrass [16]; 500 g ai/ha
  Plant response rating, Blackgrass: 80
oat, wild [17]; [23]
  Oat, Wild plant response rating: 0
oat, wild [17]; [24]
  Plant response rating, Oat, Wild: 20
ryegrass, Italian [18]; 125 g ai/ha
  Plant response rating, Ryegrass, Italian: 60
ryegrass, Italian [18]; 500 g ai/ha
  Plant response rating, Ryegrass, Italian: 90
Ragweed [19]; 125 g ai/ha
  Plant response rating, Ragweed: 0
Ragweed [19]; 500 g ai/ha
  Plant response rating, Ragweed: 0
Soybean [20]; 125 g ai/ha
  Plant response rating, Soybean: 20
Soybean [20]; 500 g ai/ha
  Plant response rating, Soybean: 30
Wheat [21]; 125 g ai/ha
  Plant response rating, Wheat: 0
Wheat [21]; 500 g ai/ha
  Plant response rating, Wheat: 30
foxtail, giant [22]; 125 g ai/ha
  Plant response rating, Foxtail, Giant: 10
foxtail, giant [22]; 500 g ai/ha
  Plant response rating, Foxtail, Giant: 100
